According to patent US9481674B1, “Dihydropyrrolopyridine inhibitors of ROR-gamma” (Vitae Pharmaceuticals, Inc., priority 2016, dated 2016):

Columns and labels:
[1] = molecular target: T1, hERG potassium ion channel (Homo sapiens, UniProt Q12809); experiment: hERG Assay (Assay 4); type: cell-based; details: HEK293 cells stably transfected with hERG cDNA, pH 7.4, comparator compounds, Table 4, compound at 3 μM
T1 construct: expressed in transfected cells; host or cells: HEK293
Experimental: Compounds of the invention were tested in vitro against the hERG (human ether-à-go-go-related gene) potassium ion channel (a surrogate for IKr, the rapidly activating delayed rectifier cardiac potassium ion channel).
The buffer was HEPES-buffered physiological saline (HB-PS) solution composed of: 137 mM NaCl, 4.0 mM KCl, 1.8 mM CaCl2, 1 mM MgCl2, 10 mM HEPES, 10 mM glucose, pH adjusted to 7.4 with NaOH, and 0.3% DMSO. Chemicals used in solution preparation were purchased from Sigma-Aldrich (St. Louis, Mo.), unless otherwise noted, and were of ACS reagent grade purity or higher.
HEK (human embryonic kidney) 293 cells were stably transfected with hERG cDNA.
For the patch clamp experiment, onset and steady state inhibition of hERG potassium current was measured using a pulse pattern with fixed amplitudes (depolarization: +20 mV for 2 s; repolarization: −50 mV for 2 s) repeated at 10 s intervals from a holding potential of −80 mV. Peak tail current was measured during the 2 s step to −50 mV. A steady state was maintained for at least 30 seconds before applying compound or positive control (cisapride). Peak tail currents were measured until a new steady state was achieved.
Data acquisition and analyses were performed using the suite of pCLAMP® (ver. 8.2) programs (MDS Analytical Technologies, Sunnyvale, Calif.). […]

IL-17A production = experiment: Human Whole Blood Assay (Assay 3); type: cell-based; details: comparator compounds, Table 4, IL-17A, read-out: 50% Human Whole Blood Assay IC50, nM^B (Assay 3)
Experimental: Human Whole Blood Assay (Assay 3)
Compounds of the invention were tested in the human whole blood assay to measure their effects on IL-17A production as determined by cytokine secretion into 50% blood/media supernatant. Mixtures of sodium heparinized whole blood (isolated from healthy human donors) and the T cell activator CytoStim, in the presence or absence of compound, were plated in sterilized, tissue culture-treated 24-well plates. Specifically, the mixtures in each well were as follows: (1) 500 μL of whole blood, (2) 250 μL of compound diluted into RPMI-1640 media containing 10% HyClone™ FCS (Thermo Fisher Scientific, Waltham, Mass.), Gibco® Pen/Strep and Gibco® NEAA (Life Technologies, Grand Island, N.Y.), and (3) 250 μL of CytoStim (Miltenyi Biotech, Germany) diluted to a final concentration of 10 μL/mL in complete cell culture medium.
IL-17A cytokine expression was determined using 25 μL of the transferred supernatant diluted with 25 μL of Diluent 43 from the Human IL-17A V-PLEX™ kit (cat. # K151RFD-4, Meso Scale Discovery, Rockville, Md.). The assay was performed according to the manufacturer's instructions using included reagents. The IL-17A V-PLEX™ plates were read using the Meso Scale Discovery Imager (Model 1200).

T1 sequence (Q12809 whole entry): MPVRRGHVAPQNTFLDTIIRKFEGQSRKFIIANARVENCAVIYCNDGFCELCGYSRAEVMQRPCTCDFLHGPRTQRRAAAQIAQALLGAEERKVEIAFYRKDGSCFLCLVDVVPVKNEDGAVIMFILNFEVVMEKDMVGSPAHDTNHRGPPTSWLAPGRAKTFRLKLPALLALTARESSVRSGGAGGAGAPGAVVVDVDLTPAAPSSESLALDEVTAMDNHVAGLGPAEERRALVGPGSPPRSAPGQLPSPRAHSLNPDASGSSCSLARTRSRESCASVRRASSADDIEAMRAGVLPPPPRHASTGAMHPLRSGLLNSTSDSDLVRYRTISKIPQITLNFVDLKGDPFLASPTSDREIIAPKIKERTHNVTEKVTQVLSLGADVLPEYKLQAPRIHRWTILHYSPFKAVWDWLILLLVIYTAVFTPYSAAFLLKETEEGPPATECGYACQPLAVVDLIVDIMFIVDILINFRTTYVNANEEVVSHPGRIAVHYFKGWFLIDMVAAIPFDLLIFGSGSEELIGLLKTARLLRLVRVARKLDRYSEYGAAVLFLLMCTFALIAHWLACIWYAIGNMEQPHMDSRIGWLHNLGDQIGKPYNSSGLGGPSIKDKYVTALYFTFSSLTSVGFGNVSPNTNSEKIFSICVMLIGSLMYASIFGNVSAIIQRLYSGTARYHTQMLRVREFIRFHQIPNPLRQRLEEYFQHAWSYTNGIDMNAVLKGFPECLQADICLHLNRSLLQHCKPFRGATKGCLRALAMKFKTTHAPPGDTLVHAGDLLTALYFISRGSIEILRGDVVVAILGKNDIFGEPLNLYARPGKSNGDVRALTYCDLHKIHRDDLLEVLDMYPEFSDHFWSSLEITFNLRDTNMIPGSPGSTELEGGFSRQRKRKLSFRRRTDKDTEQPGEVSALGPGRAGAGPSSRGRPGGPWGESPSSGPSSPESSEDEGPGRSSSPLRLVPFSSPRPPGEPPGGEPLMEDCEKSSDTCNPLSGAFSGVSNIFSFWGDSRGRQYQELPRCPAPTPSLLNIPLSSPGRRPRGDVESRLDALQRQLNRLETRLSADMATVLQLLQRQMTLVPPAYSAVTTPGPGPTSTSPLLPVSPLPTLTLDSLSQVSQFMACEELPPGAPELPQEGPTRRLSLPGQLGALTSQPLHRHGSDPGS

| IC50 (IL-17A production) [nM] | Compound | inhibition at 3 µM [1] [%] |
| --- | --- | --- |
| > 200 | CCS(=O)(=O)c1ccc(CNC(=O)c2cnc3c(c2)CN(C[C@H]2CC[C@H](C(F)(F)F)CC2)[C@H]3C(C)C)nc1 [reference compound] | 45.4 |
| – | CCS(=O)(=O)c1ccc(CNC(=O)c2cnc3c(c2)CN(C[C@H]2CC[C@H](C(F)(F)F)CC2)[C@H]3C(C)C)cc1 | 57 |
